In the NIST ThermoML archive (doi:10.1021/je050366x):
Numbers after ± are expanded uncertainties.

Experiment: xn = mol fraction of the nth substance listed
Conditions: for mass density: 100 kPa, Liquid

O=C(O)CC(O)C(=O)O (stereo unspecified) [hydroxybutanedioic acid] + O
Ring tensiometer
Conditions	surface tension liquid-gas [mN/m]
279.3 K, x1 = 0.06	71
280.5 K, x1 = 0.06	70.8
281.3 K, x1 = 0.06	70.6
281.7 K, x1 = 0.06	70.6
283.6 K, x1 = 0.06	70.3
283.7 K, x1 = 0.06	70.1
284.6 K, x1 = 0.06	70.3
285 K, x1 = 0.06	70.2
288.3 K, x1 = 0.06	69.7
288.5 K, x1 = 0.06	69.5
289.2 K, x1 = 0.06	69.7
289.3 K, x1 = 0.06	69.5
292.7 K, x1 = 0.06	68.7
293.2 K, x1 = 0.06	68.7
293.4 K, x1 = 0.06	69.1
293.7 K, x1 = 0.06	68
297.1 K, x1 = 0.06	68.2
297.2 K, x1 = 0.06	67.9
297.6 K, x1 = 0.06	68.4
297.7 K, x1 = 0.06	68
298 K, x1 = 0.003	70.3 ± 1.2
298 K, x1 = 0.007	70.1 ± 1.2
298 K, x1 = 0.015	69.8 ± 1.1
298 K, x1 = 0.023	69.3 ± 1.1
298 K, x1 = 0.032	69.3 ± 1.1
298 K, x1 = 0.043	68.4 ± 1.1
298 K, x1 = 0.054	68.4 ± 1.1
298 K, x1 = 0.058	68.1 ± 1.1
298 K, x1 = 0.07	67.8 ± 1.1
298 K, x1 = 0.082	67.3 ± 1.1
298 K, x1 = 0.087	66.8 ± 1.1
298.2 K, x1 = 0.06	67.8
301.9 K, x1 = 0.06	67.5
302.1 K, x1 = 0.06	68.1
302.3 K, x1 = 0.06	67.9

298 K
Conditions	mass density [kg/m3]
x1 = 0.003	1006 ± 2
x1 = 0.015	1037 ± 2
x1 = 0.023	1051 ± 2
x1 = 0.032	1079 ± 2
x1 = 0.054	1115 ± 2
x1 = 0.075	1146 ± 2
x1 = 0.096	1182 ± 2

O=C(O)CC(=O)O [propanedioic acid] + O
Conditions	mass density, Pycnometric method [kg/m3]	surface tension liquid-gas, Ring tensiometer [mN/m]
278.1 K, x1 = 0.06	–	66.5 ± 1.1
279.3 K, x1 = 0.06	–	66 ± 1.1
279.7 K, x1 = 0.06	–	65.9 ± 1.1
282.6 K, x1 = 0.06	–	66 ± 1.1
285 K, x1 = 0.06	–	65.7 ± 1.1
286.5 K, x1 = 0.06	–	65.6 ± 1.1
287.8 K, x1 = 0.06	–	65.4 ± 1.1
288.7 K, x1 = 0.06	–	65.2 ± 1.1
289.6 K, x1 = 0.06	–	65.3 ± 1.1
290.9 K, x1 = 0.06	–	64.6 ± 1.1
291.1 K, x1 = 0.06	–	65 ± 1.1
293 K, x1 = 0.06	–	64.6 ± 1.1
295.3 K, x1 = 0.06	–	64.7 ± 1.1
296.7 K, x1 = 0.06	–	64.1 ± 1.1
297.1 K, x1 = 0.06	–	64.1 ± 1.1
298 K, x1 = 0.009	1016 ± 1	–
298 K, x1 = 0.01	–	69.2 ± 1.1
298 K, x1 = 0.017	–	68.5 ± 1.1
298 K, x1 = 0.025	–	66.7 ± 1.1
298 K, x1 = 0.03	1054 ± 1	–
298 K, x1 = 0.033	–	66.7 ± 1.1
298 K, x1 = 0.04	–	65.6 ± 1.1
298 K, x1 = 0.041	1068 ± 1	–
298 K, x1 = 0.05	–	65.6 ± 1.1
298 K, x1 = 0.055	1090 ± 1	65.5 ± 1.1
298 K, x1 = 0.065	–	65 ± 1.1
298 K, x1 = 0.069	1108 ± 1	–
298 K, x1 = 0.07	–	64.2 ± 1.1
298 K, x1 = 0.08	–	63.5 ± 1.1
298 K, x1 = 0.085	1129 ± 1	–
298 K, x1 = 0.088	–	64.2 ± 1.1
298 K, x1 = 0.094	–	63.5 ± 1.1
298 K, x1 = 0.102	1152 ± 1	–
298 K, x1 = 0.107	–	62.7 ± 1
298 K, x1 = 0.122	–	62.3 ± 1
298 K, x1 = 0.137	–	62.2 ± 1
298 K, x1 = 0.147	1196 ± 1	–
298 K, x1 = 0.149	–	62.6 ± 1
298 K, x1 = 0.158	–	62.2 ± 1
298.2 K, x1 = 0.06	–	63.8 ± 1.1
299 K, x1 = 0.06	–	63.6 ± 1.1
299.1 K, x1 = 0.06	–	63.9 ± 1.1
301.2 K, x1 = 0.06	–	64 ± 1.1
303.3 K, x1 = 0.06	–	63 ± 1.1

CC(=O)[C@H]1C[C@@H](CC(=O)O)C1(C)C [cis-pinonic acid] + O
Conditions	mass density [kg/m3]	surface tension liquid-gas [mN/m]
280.7 K, Ring tensiometer, x1 = 0.00035	–	61.7 ± 1
282.5 K, Ring tensiometer, x1 = 0.00035	–	61.6 ± 1
283.6 K, Ring tensiometer, x1 = 0.00035	–	61.6 ± 1
283.8 K, Ring tensiometer, x1 = 0.00035	–	61.4 ± 1
284.4 K, Ring tensiometer, x1 = 0.00035	–	61.3 ± 1
285.4 K, Ring tensiometer, x1 = 0.00035	–	61.5 ± 1
287.5 K, Ring tensiometer, x1 = 0.00035	–	61.1 ± 1
288 K, Ring tensiometer, x1 = 0.00035	–	60.8 ± 1
288.8 K, Ring tensiometer, x1 = 0.00035	–	60.8 ± 1
289.1 K, Ring tensiometer, x1 = 0.00035	–	60.9 ± 1
291.9 K, Ring tensiometer, x1 = 0.00035	–	60.4 ± 1
292.5 K, Ring tensiometer, x1 = 0.00035	–	60.7 ± 1
292.9 K, Ring tensiometer, x1 = 0.00035	–	60.5 ± 1
293.9 K, Ring tensiometer, x1 = 0.00035	–	60.2 ± 1
296.8 K, Ring tensiometer, x1 = 0.00035	–	60.1 ± 1
297.1 K, Ring tensiometer, x1 = 0.00035	–	60.2 ± 1
298 K, Pycnometric method, x1 = 0.00018	995 ± 1	–
298 K, Pycnometric method, x1 = 0.00025	993 ± 1	–
298 K, Pycnometric method, x1 = 0.00033	995 ± 1	–
298 K, Pycnometric method, x1 = 0.00041	997 ± 1	–
298 K, Pycnometric method, x1 = 0.0005	996 ± 1	–
298 K, Pycnometric method, x1 = 0.00058	994 ± 1	–
298 K, Pycnometric method, x1 = 0.00066	994 ± 1	–
298 K, Pycnometric method, x1 = 0.00083	997 ± 1	–
298.1 K, Ring tensiometer, x1 = 0.00035	–	59.7 ± 1
301.2 K, Ring tensiometer, x1 = 0.00035	–	59.4 ± 1
301.7 K, Ring tensiometer, x1 = 0.00035	–	59.9 ± 1
302.1 K, Ring tensiometer, x1 = 0.00035	–	59.1 ± 1

298 K
Conditions	surface tension liquid-gas [mN/m]
x1 = 2e-05	69.5 ± 2.3
x1 = 4e-05	66.8 ± 2.2
x1 = 0.00011	64.4 ± 2.1
x1 = 0.00018	61.4 ± 2
x1 = 0.00024	61.2 ± 2
x1 = 0.00034	59 ± 2
x1 = 0.00041	57.2 ± 1.9
x1 = 0.0005	56.3 ± 1.9
x1 = 0.00058	55.8 ± 1.9
x1 = 0.00065	56.2 ± 1.9
x1 = 0.00083	53.9 ± 1.8
